Test results: patent US20250099420A1, “SMALL MOLECULE MODULATORS OF GPR139 COMPLEX” (University of Florida Research Foundation, Incorporated, priority 2022, published 2025)
pEC50: −log10 of the molar value. Where two headings read alike, the source gives them in different places.

Experiments:
parental HEK cells = assay: HEK parental Agonist Counterscreen Assay (non-transfected cells); format: cell-based; details: for Averaged Max % Response (±St. Dev.): activity relative to known control
Source text: The high control for the agonist counterscreen was Forskolin not acetylcholine.

GPR139 = target: T1, GPR139 (Homo sapiens, UniProt Q6DWJ6); assay: GPR139 Agonist titration / agonist counterscreen assay (calcium detection, HEK-GPR139 cells); format: cell-based; design: expressed in transfected cells; host or cells: HEK Aequorin cells, Maxcyte transient transfection; details: GPR139 Agonist Activity; for Averaged Max % Response (±St. Dev.): activity relative to known control; for pEC50: read-out: EC50
T1 sequence (Q6DWJ6 1-353): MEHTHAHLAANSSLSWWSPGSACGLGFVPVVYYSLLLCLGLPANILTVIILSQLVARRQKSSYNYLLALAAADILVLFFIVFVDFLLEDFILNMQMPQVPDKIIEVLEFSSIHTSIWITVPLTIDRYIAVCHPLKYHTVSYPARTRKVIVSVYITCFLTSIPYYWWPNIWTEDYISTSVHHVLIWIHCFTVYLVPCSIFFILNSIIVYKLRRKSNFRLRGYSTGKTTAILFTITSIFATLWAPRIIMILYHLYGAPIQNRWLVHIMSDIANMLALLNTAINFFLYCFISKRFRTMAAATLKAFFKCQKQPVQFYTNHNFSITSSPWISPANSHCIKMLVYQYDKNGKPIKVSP
Description: GPR activity was assessed using a calcium detection assay. […] Negative control samples were treated with DMSO. […] Intracellular calcium was measured using Calcium 5.

[1] = Homo sapiens, HEK293, HEK Agonist Activity section of Table 4 (parental HEK counterscreen)
[2] = values printed in E-notation without unit
[3] = HEK Agonist Activity section of Table 4 (parental HEK counterscreen)
[4] = Homo sapiens, HEK293, HEK Agonist Activity, parental non-transfected HEK cells

SMILES | Lipophilic Efficiency (logD) (parental HEK cells; HEK Agonist Activity section) | Lipophilic Efficiency (logP) (parental HEK cells; HEK Agonist Activity section) | Averaged Max % Response (±St. Dev.) (GPR139) [%] | Lipophilic Efficiency (logD) (GPR139; based on logD) | Lipophilic Efficiency (logP) (GPR139; based on logP) | Hill Slope (GPR139; fitted dose-response curve) | Efficiency Ligand (GPR139; ligand efficiency) | pEC50 (GPR139; [2]) | Efficiency Ligand (GPR139) | Hill Slope (GPR139) | Lipophilic Efficiency (logD) (GPR139) | Lipophilic Efficiency (logP) (GPR139) | pEC50 (GPR139; HEK-GPR139 cells) | Averaged Max % Response (±St. Dev.) (parental HEK cells; HEK Agonist Activity section) [%] | pEC50 (parental HEK cells; [1]) | further results
Cc1nc(CNC(=O)CCC2(Cc3cccc4ccccc34)CCC(=O)N2)cs1 (stereo not shown) [SR-01000187393] | 2.44 | 2.44 | 99.15 ± 6.04 | 4.29 | 4.29 | 0.44 | 0.32 | 6.71 |  |  |  |  |  | 6.35 ± 6.79 | < 4.85 | 
COC(=O)c1ccc(NC(=O)CNC(=O)C2CCCCC2)c(C)c1 [SR-01000246445] | 2.12 | 2.12 | 77.11 ± 5.52 |  |  |  |  |  | 0.36 | 1.22 | 3.52 | 3.52 | 6.26 | 30.43 ± 4.82 | < 4.85 | 
O=C(Cn1ncc2c1-c1ccccc1OC2)Nc1ccccn1 [SR-01000135048] | 3.00 | 3.00 | 109.25 ± 4.64 | 4.72 | 4.72 | 1.29 | 0.40 | 6.58 |  |  |  |  |  | 12.06 ± 16.35 | < 4.85 | 
Cc1ccccc1CN1CCC(O)(c2ccc(Cl)c(C(F)(F)F)c2)CC1 [SR-05000022582] | 1.43 | −0.025 | 135.48 ± 20.60 |  |  |  |  |  | 0.31 | 0.53 | 2.32 | 0.87 | 5.74 | 0.58 ± 18.59 |  | pEC50 (parental HEK cells; [3]): < 4.85
Cc1ccccc1-c1nc(C[S+]([O-])CC(=O)NC(C)CCc2ccccc2)c(C)o1 (stereo not shown) [SR-01000129545] | 1.11 | 1.09 | 92.13 ± 1.72 |  |  |  |  |  | 0.30 | 0.47 | 2.69 | 2.68 | 6.44 | 32.45 ± 12.40 |  | pEC50 (parental HEK cells; [3]): < 4.85
C=C(CCC)c1ccc(CCC2=NNC(c3ccccc3)N2C)cc1 (stereo not shown) [SR-01000299610] | 2.82 | 2.82 | 71.34 ± 19.37 |  |  |  |  |  | 0.33 | 0.79 | 3.88 | 3.88 |  | −12.89 ± 6.99 | < 4.85 | 
Cc1ccccc1SCC(=O)NNC(=O)C1CCCCC1 [SR-01000070173] | 1.83 | 1.83 | 99.23 ± 7.18 |  |  |  |  |  | 0.42 | 0.62 | 3.30 | 3.30 | 6.29 | 7.45 ± 6.67 | < 4.83 | 
CC(C)CN1CCNC(=O)C1CC(=O)NCCCn1ccc2ccccc21 (stereo not shown) [SR-01000176150] |  |  | 110.06 ± 19.04 | 6.35 | 6.03 | 0.64 | 0.40 | 7.72 |  |  |  |  |  |  |  | Lipophilic Efficiency (logD) (parental HEK cells; HEK Agonist Activity): 3.48; Lipophilic Efficiency (logP) (parental HEK cells; HEK Agonist Activity): 3.17; Averaged Max % Response (±St. Dev.) (parental HEK cells; HEK Agonist Activity): −3.65 ± 2.66%; pEC50 (parental HEK cells; HEK Agonist Activity, parental non-transfected HEK cells): < 4.85
COc1cc(C(C)=O)ccc1OCC(=O)NC(C)CCc1ccccc1 (stereo not shown) [SR-01000048295] |  |  | 102.89 ± 3.61 | 4.43 | 4.43 | 0.88 | 0.40 | 7.42 |  |  |  |  |  |  |  | Lipophilic Efficiency (logD) (parental HEK cells; HEK Agonist Activity): 1.86; Lipophilic Efficiency (logP) (parental HEK cells; HEK Agonist Activity): 1.86; Averaged Max % Response (±St. Dev.) (parental HEK cells; HEK Agonist Activity): 7.53 ± 4.49%; pEC50 (parental HEK cells; [4]): < 4.84
CC1=CN=C(CCc2ccc(F)c3ccccc23)C1 [SR-01000525232] |  |  | 96.70 ± 23.19 | 4.05 | 4.05 | 0.19 | 0.57 |  |  |  |  |  |  |  |  | Lipophilic Efficiency (logD) (parental HEK cells; HEK Agonist Activity): 1.09; Lipophilic Efficiency (logP) (parental HEK cells; HEK Agonist Activity): 1.09; Averaged Max % Response (±St. Dev.) (parental HEK cells; HEK Agonist Activity): −17.88 ± 3.50%; pEC50 (parental HEK cells; [4]): < 4.76

Now from value to molecule, other results behind:

Lipophilic Efficiency (logD) (parental HEK cells; HEK Agonist Activity section) | Lipophilic Efficiency (logP) (parental HEK cells; HEK Agonist Activity section) | Averaged Max % Response (±St. Dev.) (GPR139) [%] | Lipophilic Efficiency (logD) (GPR139; based on logD) | Lipophilic Efficiency (logP) (GPR139; based on logP) | Hill Slope (GPR139; fitted dose-response curve) | Efficiency Ligand (GPR139; ligand efficiency) | pEC50 (GPR139; [2]) | Efficiency Ligand (GPR139) | Hill Slope (GPR139) | Lipophilic Efficiency (logD) (GPR139) | Lipophilic Efficiency (logP) (GPR139) | pEC50 (GPR139; HEK-GPR139 cells) | SMILES | Averaged Max % Response (±St. Dev.) (parental HEK cells; HEK Agonist Activity section) [%] | pEC50 (parental HEK cells; [1]) | further results
2.07 | 2.07 | 111.20 ± 10.15 | 4.02 | 4.02 | 0.36 | 0.38 |  |  |  |  |  |  | C=C(CC1N=CC2=C1c1ccccc1CC2)NCc1ccc(C)cc1 (stereo not shown) [SR-01000134947] | 1.42 ± 10.91 | < 4.85 | 
2.13 | 2.13 | 114.03 ± 9.34 | 3.89 | 3.89 | 0.51 | 0.36 | 6.61 |  |  |  |  |  | CC(NC(=O)CN1CCN(Cc2ccc(Cl)cc2)C1=O)c1ccccc1 (stereo not shown) [SR-01000105214] | −5.28 ± 2.10 | < 4.85 | 
3.34 | 3.34 | 94.97 ± 7.83 |  |  |  |  |  | 0.41 | 0.57 | 4.90 | 4.90 | 6.41 | COc1ccc(CSc2nnc(-c3cccnc3)n2N)cc1 [SR-01000284323] | 3.28 ± 6.64 |  | pEC50 (parental HEK cells; [3]): < 4.85
 |  | 122.23 ± 2.65 | 3.53 | 3.53 | 0.24 | 0.44 | 7.54 |  |  |  |  |  | Cc1ccc(SCC(=O)Nc2nnc(-c3ccccc3Cl)o2)cc1 [SR-01000021416] |  |  | Lipophilic Efficiency (logD) (parental HEK cells; HEK Agonist Activity): 0.84; Lipophilic Efficiency (logP) (parental HEK cells; HEK Agonist Activity): 0.84; Averaged Max % Response (±St. Dev.) (parental HEK cells; HEK Agonist Activity): 23.13 ± 4.18%; pEC50 (parental HEK cells; [4]): < 4.85
2.04 | 2.04 | 100.11 ± 8.55 |  |  |  |  |  | 0.32 | 1.37 | 3.64 | 3.64 | 6.45 | CSc1ccc(CCNC(=O)Cn2ncc3c(=O)oc4ccccc4c32)cc1 [SR-01000105999] | 4.15 ± 6.01 | < 4.85 | 
3.10 | 3.10 | 107.14 ± 13.14 | 5.56 | 5.56 | 0.42 | 0.37 | 7.31 |  |  |  |  |  | COc1ccc(C2(C)NC(=O)N(CC(=O)NCc3ccc(F)cc3)C2=O)cc1 (stereo not shown) [SR-01000918720] | 24.77 ± 3.77 | < 4.85 | 
0.91 | 0.91 | 77.18 ± 14.00 |  |  |  |  |  | 0.38 | 1.01 | 2.24 | 2.24 | 6.19 | N#Cc1ccc(OC(=O)COc2cccc3ccccc23)cc1 [SR-01000005203] | 16.23 ± 3.90 | < 4.86 | 
1.85 | 1.85 | 81.65 ± 6.38 |  |  |  |  |  | 0.37 | 1.15 | 3.01 | 3.01 | 6.02 | COc1ccc(SCC(=O)NNC(=S)Nc2ccccc2)cc1 [SR-01000526835] | 7.64 ± 8.84 | < 4.86 | 
1.62 | 1.62 | 88.21 ± 16.68 |  |  |  |  |  | 0.32 | 1.42 | 2.66 | 2.66 | 5.89 | Cc1ccc(CNC(=O)Cn2nc(-c3ccc(C)cc3)ccc2=O)cc1 [SR-01000145456] | −11.57 ± 15.53 | < 4.85 | 
